Source: patent US20200188388A1, “METHODS AND COMPOSITIONS FOR PO[…] DRUGS AND REDUCING THEIR SIDE EFFECTS” (RVX THERAPEUTICS LTD., priority 2016, published 2020)

Columns and labels:
[1] = tested on: Wistar rats; assay: Rotenone-induced PD: severe oligokinesia in open field test; format: in vivo, rat; conditions: oligokinesia ++-+++ in OF test
Protocol: Locomotive activity of rats was tested in the “open field” test. […] Registration of horizontal and vertical locomotive activity was carried out in first day for rats with high selection locomotive activity (total walking time with not less than 12 seconds and the number of vertical uprights at least 4), 60 minutes before the first administration of rotenone. To identify the rotenone-induced oligokinesia in each experimental group the locomotive activity in the open field test was examined again 2 hours after the administration of rotenone on days 12 and 19 of the experiment.
(§1) Quantification of oligokinesia in points: 0 points—the highest horizontal activity (walking total time more than 12 seconds) and high vertical activity (number of vertical posts) more than 3; 1 point—reducing the horizontal activity (total walking time 7-11 seconds) and a decrease in vertical activity (the number of vertical columns 1-3); 2 points—a significant reduction in horizontal activity (total walking time 2-6 seconds) and the absence of vertical activity (the number of vertical columns 0-1); 3 points—the absence of horizontal activity (total walking time 0-1 seconds) and the absence of vertical activity (number of vertical columns 0). In each experimental group 120 minutes after administration of rotenone on days 12 and 19 of experiment the number of rats with severe oligokinesia (2-3 points) in % of the total number of rats in group was determined.
Locomotive activity of rats was tested in the “open field” test. […] Registration of horizontal and vertical locomotive activity was carried out in first day for rats with high selection locomotive activity (total walking time with not less than 12 seconds and the number of vertical uprights at least 4), 60 minutes before the first administration of rotenone. To identify the rotenone-induced oligokynesia in each experimental group the locomotive activity in the open field test was examined again 2 hours after the administration of rotenone on days 12 and 19 of the experiment.
as §1, with “of oligokynesia” for “of oligokinesia”

[2] = tested on: Wistar rats; assay: Rotenone-induced PD: severe catalepsy on inclined grid; format: in vivo, rat; conditions: for Severe catalepsy (% of group): 45 min before rotenone 2.3 mg/kg, immobilization on inclined grid above 40 seconds; for Severe catalepsy, Day 19: control 58, doses as E38; for Severe catalepsy, Day 12: oral daily 19 days, 45 min before rotenone 2.3 mg/kg IP, levodopa given with benserazide 4:1, control 42, rat dose mg/kg by row (L levodopa, P phenylephrine, M memantine): r12 M2.5, r13 M5, r14 P0.3, r15 L10, r16 L20, r17 L5+P0.3+M1, r18 L10+P0.3+M1
Text: Rotenone is a specific inhibitor of mitochondrial complex 1, which causes oxidative stress and apoptotic death of dopaminergic and cholinergic neurons in the striatum, substantia nigra and cerebellum. Damage to these neurons causes a decrease in dopamine and acetylcholine levels in the striatum, extrapyramidal disorders (catalepsy, impaired coordination of movements) and oligokinesia typical for PD, as well as ataxia, limb dystonia and mortality characteristic of PSP. Rotenone is used to create a model of PD and PSP in Wistar rats by intraperitoneal introduction of rotenone in a toxic dose of 2.3 mg/kg (Jason R. Cannon et al., Neurobiology of Disease, 2009, Vol. 34, pages 279-290).
Rotenone was dissolved in mixture of DMSO and Miglyol 812N at a ratio of 2:98 at concentration of 2.3 mg/ml. Preparation: 230 mg sample of rotenone in vials was dissolved in 2 ml of DMSO. The solution was poured into a jar with 100 ml. Vials are rinsed twice with 5 ml of Miglyol, washings attached to the main solution and stirred. To this solution was added 88 ml of Miglyol and mixed again. The resulting solution was divided into 3 doses. The solution was stored at −10° C. Each animal was administered 0.2 ml of a solution of rotenone: a dose of 0.46 mg per animal weighing 200±20 g, i.e. 2.3 mg/kg. The solution of rotenone was injected IP one time a day for 19 days.
Anti-parkinsonian effect of therapy in rats with rotenone-induced PD was estimated according to elimination of extrapyramidal disorders (catalepsy) and oligokinesia (rapid decreased amplitude and velocity of repeated movements) in the “open field” test. The neuro-protective effect of therapy was evaluated by the elimination of ataxia limb dystonia and mortality in rats with rotenone-induced PSP. Hyperkinetic side action (hyper-locomotion) was evaluated by increased horizontal and vertical activity in the open field at the 10th and 18th day of the experiment, calculated in % compared to the first day of the experiment.
The number of animals in the control and experimental groups ranged from 6 to 8.
Levodopa was administered in combination with benserazide (peripheral dopa-decarboxylase inhibitor) at a ratio of 4:1 to reduce the side effects of levodopa, associated with the stimulation of peripheral dopamine receptors (Alam M. et al., Behav. Brain Res., 2004, Vol. 153 (2), pages 439-446). Levodopa with benserazide were dissolved in 1 ml of DW and administered orally in the volume of 1 ml. […] The mixture was administered orally in a volume of 1 ml. Anti-parkinsonian effect in the experimental groups of rats with rotenone has been evaluated by eliminating catalepsy and oligokinesia.
Catalepsy in rats is determined by the time of immobilization of the animal, placed on a large grid predisposed at an angle of 45°. Maximum catalepsy in rats is recorded in the case of their complete immobilization on grid at 120 seconds for observation. The value of catalepsy is evaluated in points: 3 points—immobilization duration from 80 seconds to 120, 2 points—immobilization duration from 40 to 70, 1 point—immobilization duration from 20 to 35, 0 points—the immobilization of less than 20 seconds. Catalepsy was followed in rats daily, 30 minutes before administration of rotenone and 180 minutes after administration of rotenone. For each experimental group, on a daily basis, throughout the period of observation number of rats with severe catalepsy (2-3 points) was determined in % of the total number of rats in group. To assess the anti-cataleptic effects of therapy, on 12th and 19th day of experiment, reduction in the number of rats with severe catalepsy (2-3 points) in % was determined compared to control treated with distilled water.
Anti-parkinsonian effect of therapy in rats with rotenone-induced parkinsonism was estimated according to elimination of extrapyramidal disorders (catalepsy) and oligokinesia in the “open field” test. […]

[3] = tested on: male Wistar rats; assay: Opioid hyperalgesia in tail and paw withdrawal tests (% rats)

## N[C@@H](Cc1ccc(O)c(O)c1)C(=O)O [Levodopa, L-3,4-dihydroxyphenylalanine]
[1]; Day 12, levodopa 10 mg/kg oral
  Severe oligokinesia (% of group): 86 % of group
[1]; Day 12, levodopa 20 mg/kg oral
  Severe oligokinesia (% of group): 50 % of group
[1]; Day 19, levodopa 10 mg/kg oral
  Severe oligokinesia (% of group): 100 % of group
[1]; Day 19, levodopa 20 mg/kg oral
  Severe oligokinesia (% of group): 63 % of group
[2]; Day 12, levodopa 10 mg/kg oral
  Severe catalepsy (% of group): 28 % of group
[2]; Day 12, levodopa 20 mg/kg oral
  Severe catalepsy (% of group): 12 % of group
[2]; Day 19, levodopa 10 mg/kg oral
  Severe catalepsy (% of group): 42 % of group
[2]; Day 19, levodopa 20 mg/kg oral
  Severe catalepsy (% of group): 24 % of group
[2]; levodopa 10 mg/kg
  Severe catalepsy, Day 19: 42 % of group
[2]; levodopa 20 mg/kg
  Severe catalepsy, Day 19: 24 % of group

## CC12CC3CC(C)(C1)CC(N)(C3)C2 [Memantine, memantine]
[1]; Day 12, memantine 5 mg/kg oral
  Severe oligokinesia (% of group): 50 % of group
[1]; Day 19, memantine 5 mg/kg oral
  Severe oligokinesia (% of group): 50 % of group
[2]; Day 12, memantine 5 mg/kg oral
  Severe catalepsy (% of group): 17 % of group
[2]; Day 12, memantine […] oral
  Severe catalepsy (% of group): 33 % of group
[2]; Day 19, memantine 5 mg/kg oral
  Severe catalepsy (% of group): 17 % of group
[2]; Day 19, memantine […] oral
  Severe catalepsy (% of group): 50 % of group
[2]; memantine 2.5 mg/kg
  Severe catalepsy, Day 12: 33 % of group
[2]; memantine 5 mg/kg
  Severe catalepsy, Day 12: 17 % of group
[3]; doses as E6
  Hyperalgesia: 0 % rats
[3]; doses as E12
  Hyperalgesia: 0 % rats
[3]; doses as E48
  Hyperalgesia: 0 % rats
[3]; doses as E54
  Hyperalgesia: 0 % rats
